Experimental data taken from patent US20240109885A1, “2,3-DIHYDRO-1H-PYRROLO[3,2-B]PYRIDINE DERIVATIVE, PREPARATION METHOD THEREFOR, AND APPLICATION THEREOF” (Abbisko Therapeutics Co., Ltd, priority 2020, published 2024).

Experiments:
Assay type in all cases: cell-based
A431 (EGFR-WT) = assay: Cell proliferation assay (CellTiter-Glo), A431 cells; details: Homo sapiens, A-431, 72 hrs, CTG assay, * = average of multiple measurements
Experimental: (§1) I. Cell proliferation assay (i) Reagents and consumables • Fetal bovine serum (FBS) (GBICO, Cat #10099-141); • CellTiter-Glo® Luminescent Cell Viability Assay Kit (Promega, Cat #G7572); • Black transparent flat-bottomed 96-well plate (Corning®, Cat #3603).
(§2) • SpectraMax Multi-Label Microplate Detector MD, 2104-0010A; • CO2 incubator, Thermo Scientific 3100 Series; • Biosafety cabinet, Thermo Scientific, 1300 Series type A2; • Inverted microscope, Olympus, CKX41SF; • Siemens refrigerator KK25E76TI. (iii) Cell lines and culture conditions
(§3) (iv) Experimental procedures 1. Cell culture and seeding: • (1) Cells in the logarithmic growth phase were harvested, and counted using a platelet counter. Cell viability was detected by the trypan blue exclusion assay to ensure that the cell viability was above 90%. • (2) The cell concentration was adjusted to achieve the final density; and 90 μL of the cell suspension was added to the 96-well plate. • (3) The cells were incubated in the 96-well plate overnight at 37° C. in the presence of 5% CO2 with 95% humidity. 2. TO benchmark data: • (1) 10 μL of PBS was added to each well of the TO flat plate containing the cells. • (2) The CTG reagent was thawed, and the cell plate was equilibrated to room temperature for 30 min. • (3) An equal volume of CTG solution was added to each well. • (4) The cells were shaken for 5 min on an orbital shaker for lysis. • (5) The cell plate was left at room temperature for 20 min to stabilize luminescent signals. • (6) The values of TO luminescent signals were read. 3. Compound dilution and addition • (1) According to the compound information table, a corresponding volume of DMSO was added to the corresponding compound powder to prepare a 10 mM stock solution. • (2) Compound solutions diluted at 1000 fold and 3.16 fold were prepared. • (3) The compound solution diluted at 1000 fold was diluted at 100 fold with PBS, to prepare the compound solutions at 10 fold in 9 concentrations, with the maximum concentration of […]; and the compound solution was diluted at 3.16 fold. 10 μL of medicament solution was added to each well of the seeded 96-well plate. Three replicate wells were provided for each concentration of the compound, and the final concentration of DMSO was 0.1%. • (4) Cells were placed in the 96-well plate containing the medicament and subsequently cultured for 72 hrs at 37° C. in the presence of 5% CO2 with 95% humidity, and then, CTG assay was conducted. 4. Reading of luminescent signals • (1) The CTG reagent was thawed, and the cell plate was equilibrated to room temperature for 30 min. • (2) An equal volume of CTG solution was added to each well. • (3) The cells were shaken for 5 min on an orbital shaker for lysis.
(§4) (4) The cell plate was left at room temperature for 20 min to stabilize the luminescent signals. • (5) Luminescent values were read. Data processing
(§5) The data were analyzed using software GraphPad Prism 7.0, and fitted by the nonlinear S-curve regression to obtain a dose-effect curve, based on which the IC50 value (unit: nM) was calculated, with the specific test results shown in Table 1.
(§6) Cell viability (%)=(Lum test medicament-Lum culture medium control)/(Lum cell control-Lum culture medium control)×100%.

[1] = target: Ba/F3 EGFR-D770-N771ins_SVD (Homo sapiens, UniProt P00533, DUP768-770, cells depend on it); assay: Cell proliferation assay (CellTiter-Glo), Ba/F3 EGFR-D770-N771ins_SVD cells; details: 72 hrs, CTG assay, * = average of multiple measurements, read-out: Ba/F3 EGFR-D770-N771ins_SVD (nM), IC50 of cell proliferation
Experimental: as §1, §2, §3, §4, §5, §6

[2] = target: Ba/F3 EGFR-V769_D770insASV (Homo sapiens, UniProt P00533, DUP767-769, cells depend on it); assay: Cell proliferation assay (CellTiter-Glo), Ba/F3 EGFR-V769_D770insASV cells; details: 72 hrs, CTG assay, * = average of multiple measurements, read-out: Ba/F3 EGFR-V769_D770insASV (nM), IC50 of cell proliferation
Experimental: as §1, §2, §3, §4, §5, §6

Ba/F3 EGFR-V769_D770insASV, sequence (P00533 with tags, fused parts or gaps DUP767-769): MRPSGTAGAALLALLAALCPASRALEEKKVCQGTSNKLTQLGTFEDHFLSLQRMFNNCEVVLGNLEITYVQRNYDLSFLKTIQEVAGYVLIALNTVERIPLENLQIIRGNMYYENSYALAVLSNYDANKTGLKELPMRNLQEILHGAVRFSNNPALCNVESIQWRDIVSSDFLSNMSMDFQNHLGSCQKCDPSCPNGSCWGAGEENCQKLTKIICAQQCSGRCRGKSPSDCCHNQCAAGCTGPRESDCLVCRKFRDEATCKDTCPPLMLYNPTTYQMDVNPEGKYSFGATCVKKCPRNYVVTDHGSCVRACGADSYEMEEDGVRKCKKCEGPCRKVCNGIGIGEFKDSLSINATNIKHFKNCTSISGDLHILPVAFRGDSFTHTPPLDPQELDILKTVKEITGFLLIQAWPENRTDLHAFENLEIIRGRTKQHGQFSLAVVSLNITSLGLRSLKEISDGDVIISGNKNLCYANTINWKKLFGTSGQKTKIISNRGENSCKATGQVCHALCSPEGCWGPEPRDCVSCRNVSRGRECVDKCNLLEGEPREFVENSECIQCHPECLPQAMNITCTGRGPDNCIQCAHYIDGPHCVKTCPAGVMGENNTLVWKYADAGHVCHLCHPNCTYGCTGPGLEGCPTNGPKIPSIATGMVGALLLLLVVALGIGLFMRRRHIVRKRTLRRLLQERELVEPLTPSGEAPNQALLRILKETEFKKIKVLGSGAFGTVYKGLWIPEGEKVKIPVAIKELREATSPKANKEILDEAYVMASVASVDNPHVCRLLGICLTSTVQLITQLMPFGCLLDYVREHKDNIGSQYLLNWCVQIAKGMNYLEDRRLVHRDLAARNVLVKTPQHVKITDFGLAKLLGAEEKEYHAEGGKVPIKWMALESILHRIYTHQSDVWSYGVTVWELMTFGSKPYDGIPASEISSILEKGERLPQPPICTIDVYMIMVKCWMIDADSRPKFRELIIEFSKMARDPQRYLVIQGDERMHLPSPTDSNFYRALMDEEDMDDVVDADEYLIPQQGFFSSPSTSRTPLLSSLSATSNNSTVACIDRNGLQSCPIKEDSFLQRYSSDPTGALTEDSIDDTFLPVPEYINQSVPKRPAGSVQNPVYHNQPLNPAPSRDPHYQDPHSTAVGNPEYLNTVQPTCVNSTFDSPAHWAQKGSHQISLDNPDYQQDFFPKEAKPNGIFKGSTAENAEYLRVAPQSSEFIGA
Ba/F3 EGFR-D770-N771ins_SVD, sequence (P00533 with tags, fused parts or gaps DUP768-770): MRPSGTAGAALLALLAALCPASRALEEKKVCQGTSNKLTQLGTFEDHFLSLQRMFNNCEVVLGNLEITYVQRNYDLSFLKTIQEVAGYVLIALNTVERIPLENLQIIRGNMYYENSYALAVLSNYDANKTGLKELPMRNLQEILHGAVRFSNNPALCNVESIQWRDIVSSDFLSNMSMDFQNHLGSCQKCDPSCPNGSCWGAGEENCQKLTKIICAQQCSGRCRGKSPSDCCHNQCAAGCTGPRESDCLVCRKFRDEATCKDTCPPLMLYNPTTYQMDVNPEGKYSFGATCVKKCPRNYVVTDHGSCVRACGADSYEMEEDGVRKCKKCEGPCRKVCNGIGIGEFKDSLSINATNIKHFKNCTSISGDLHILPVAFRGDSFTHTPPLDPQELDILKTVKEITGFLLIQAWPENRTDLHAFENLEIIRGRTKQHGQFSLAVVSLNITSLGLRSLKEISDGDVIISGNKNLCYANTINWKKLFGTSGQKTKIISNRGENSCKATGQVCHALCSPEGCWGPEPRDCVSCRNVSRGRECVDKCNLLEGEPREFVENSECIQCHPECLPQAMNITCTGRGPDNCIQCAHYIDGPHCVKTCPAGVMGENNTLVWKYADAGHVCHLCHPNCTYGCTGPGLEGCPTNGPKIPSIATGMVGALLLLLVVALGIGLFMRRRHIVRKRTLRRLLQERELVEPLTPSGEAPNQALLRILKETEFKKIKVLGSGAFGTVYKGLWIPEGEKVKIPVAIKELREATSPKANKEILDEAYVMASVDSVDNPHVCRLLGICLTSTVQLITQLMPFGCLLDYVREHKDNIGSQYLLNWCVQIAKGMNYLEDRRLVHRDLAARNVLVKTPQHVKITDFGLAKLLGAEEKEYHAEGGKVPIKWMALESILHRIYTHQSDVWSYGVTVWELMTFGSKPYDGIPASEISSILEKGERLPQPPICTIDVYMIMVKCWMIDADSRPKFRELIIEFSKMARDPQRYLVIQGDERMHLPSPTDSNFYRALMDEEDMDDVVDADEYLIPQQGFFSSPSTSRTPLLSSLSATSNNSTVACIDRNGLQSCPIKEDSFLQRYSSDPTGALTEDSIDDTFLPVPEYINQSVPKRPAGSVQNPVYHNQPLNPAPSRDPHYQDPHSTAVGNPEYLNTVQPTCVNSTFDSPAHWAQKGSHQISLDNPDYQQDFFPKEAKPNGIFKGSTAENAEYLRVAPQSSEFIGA

Row | IC50 (A431 (EGFR-WT)) [nM] | GI50 [1] [nM] | GI50 [2] [nM] | Compound
1 | 71.8 | 12.5 | 17.9 | C=CC(=O)Nc1cc(Nc2ncnc(N3CC(C)(C)c4nc(C)ccc43)n2)c(OC)cc1N(C)CCN(C)C [Example 8, N-(2-((2-(dimethylamino)ethyl) (methyl)amino)-4-methoxy-5-((4-(3,3,5-trimethyl-2,3-dihydro-1H-pyrrolo[3,2-b]pyridin-1-yl)-1,3,5-triazin-2-yl)amino)phenyl)acrylamide]
2 | 293 | 40.4 | 73.9 | C=CC(=O)Nc1cc(Nc2cc(N3CC(C)(C)c4nc(C)ccc43)ncn2)c(OC)cc1N(C)CCN(C)C [Example 11, N-(2-((2-(dimethylamino)ethyl) (methyl)amino)-4-methoxy-5-((6-(3,3,5-trimethyl-2,3-dihydro-1H-pyrrolo[3,2-b]pyridin-1-yl)pyrimidin-4-yl)amino)phenyl)acrylamide]
3 | 89.9 | 35.3 | 70.8 | C=CC(=O)Nc1cc(Nc2cc(N3CC(C)(C)c4ncccc43)ncn2)c(OC)cc1N1CCC[C@@H]1CN(C)C [Example 12, (R)-N-(5-((6-(3,3-dimethyl-2,3-dihydro-1H-pyrrolo[3,2-b]pyridin-1-yl)pyrimidin-4-yl)amino)-2-(2-((dimethylamino)methyl)pyrrolidin-1-yl)-4-methoxyphenyl)acrylamide]
4 | 101 | 42.1 | 87.4 | C=CC(=O)Nc1cc(Nc2cc(N3CC(C)(C)c4nc(C)ccc43)ncn2)c(OC)cc1N1CCC[C@@H]1CN(C)C [Example 13, (R)-N-(5-((6-(3,3,5-trimethyl-2,3-dihydro-1H-pyrrolo[3,2-b]pyridin-1-yl)pyrimidin-4-yl)amino)-2-(2-((dimethylamino)methyl)pyrrolidin-1-yl)-4-methoxyphenyl)acrylamide]
5 | 815 | 37 | 74.8 | C=CC(=O)Nc1cc(Nc2cc(N3CC(C)(C)c4nc(C)ccc43)ccn2)c(OC)nc1N(C)CCN(C)C [Example 15, N-(2-((2-(dimethylamino)ethyl) (methyl)amino)-6-methoxy-5-((4-(3,3,5-trimethyl-2,3-dihydro-1H-pyrrolo[3,2-b]pyridin-1-yl)pyridin-2-yl)amino)pyridin-3-yl)acrylamide]
6 | 47.7 | 9.5 | 27.7 | C=CC(=O)Nc1cc(Nc2ncnc(N3CC(C)(C)c4ncc(C)cc43)n2)c(OC)cc1N(C)CCN(C)C [Example 16, N-(2-((2-(dimethylamino)ethyl) (methyl)amino)-4-methoxy-5-((4-(3,3,6-trimethyl-2,3-dihydro-1H-pyrrolo[3,2-b]pyridin-1-yl)-1,3,5-triazin-2-yl)amino)phenyl)acrylamide]
7 | 125 | 33.9 | 54.6 | C=CC(=O)Nc1cc(Nc2nccc(N3CC(C)(C)c4nc(C5CC5)ccc43)n2)c(OC)cc1N(C)CCN(C)C [Example 17, N-(5-((4-(5-cyclopropyl-3,3-dimethyl-2,3-dihydro-1H-pyrrolo[3,2-b]pyridin-1-yl)pyrimidin-2-yl)amino)-2-((2-(dimethylamino)ethyl) (methyl)amino)-4-methoxyphenyl) acrylamide]
8 | 15.2 | 2.9 | 14 | C=CC(=O)Nc1cc(Nc2ncnc(N3CC(C)(C)c4nc(C)c(C)cc43)n2)c(OC)cc1N(C)CCN(C)C [Example 20, N-(2-((2-(dimethylamino)ethyl) (methyl)amino)-4-methoxy-5-((4-(3,3,5,6-tetramethyl-2,3-dihydro-1H-pyrrolo[3,2-b]pyridin-1-yl)-1,3,5-triazin-2-yl)amino)phenyl)acrylamide]
9 | 80.4 | 3.8 | 19 | C=CC(=O)Nc1cc(Nc2nccc(N3CC(C)(C)c4nc(C)c(C)cc43)n2)c(OC)cc1N(C)CCN(C)C [Example 21, N-(2-((2-(dimethylamino)ethyl) (methyl)amino)-4-methoxy-5-((4-(3,3,5,6-tetramethyl-2,3-dihydro-1H-pyrrolo[3,2-b]pyridin-1-yl)pyrimidin-2-yl)amino)phenyl)acrylamide]
10 | 121 | 15.6 | 58.2 | C=CC(=O)Nc1cc(Nc2ncnc(N3CC(C)(C)c4nc(Cl)ccc43)n2)c(OC)cc1N(C)CCN(C)C [Example 22, N-(5-((4-(5-chloro-3,3-dimethyl-2,3-dihydro-1H-pyrrolo[3,2-b]pyridin-1-yl)-1,3,5-triazin-2-yl)amino)-2-((2-(dimethylamino)ethyl) (methyl)amino)-4-methoxyphenyl) acrylamide]
11 | 850 | 25.4 | 44.3 | C=CC(=O)Nc1cc(Nc2nccc(N3CC(C)(C)c4nc(C)ccc43)n2)c(OCC)cc1N(C)CCN(C)C [Example 24, N-(2-((2-(dimethylamino)ethyl) (methyl)amino)-4-ethoxy-5-((4-(3,3,5-trimethyl-2,3-dihydro-1H-pyrrolo[3,2-b]pyridin-1-yl)pyrimidin-2-yl)amino)phenyl)acrylamide]
12 | 26.3 | 28.9 | 37.1 | C=CC(=O)Nc1cc(Nc2cc(N3CC(C)(C)c4nc(C)c(C)cc43)ncn2)c(OC)cc1N(C)CCN(C)C [Example 28, N-(2-((2-(dimethylamino)ethyl) (methyl)amino)-4-methoxy-5-((6-(3,3,5,6-tetramethyl-2,3-dihydro-1H-pyrrolo[3,2-b]pyridin-1-yl)pyrimidin-4-yl)amino)phenyl)acrylamide]
13 | 22.1 | 20 | 45.5 | C=CC(=O)Nc1cc(Nc2ncnc(N3CC4(CCCC4)c4nc(C)ccc43)n2)c(OC)cc1N(C)CCN(C)C [Example 29, N-(2-((2-(dimethylamino)ethyl) (methyl)amino)-4-methoxy-5-((4-(5′-methylspiro[cyclopentane-1,3′-pyrrolo[3,2-b]pyridin]-1′(2′H)-yl)-1,3,5-triazin-2-yl)amino)phenyl) acrylamide]
14 | 42.2 | 38.1 | 65.3 | C=CC(=O)Nc1cc(Nc2ncnc(N3CC(C)(C)c4nc(C)c(C)cc43)n2)c(OCC)cc1N(C)CCN(C)C [Example 30, N-(2-((2-(dimethylamino)ethyl) (methyl)amino)-4-ethoxy-5-((4-(3,3,5,6-tetramethyl-2,3-dihydro-1H-pyrrolo[3,2-b]pyridin-1-yl)-1,3,5-triazin-2-yl)amino)phenyl)acrylamide]
15 | 11.1 | 13 | 33 | C=CC(=O)Nc1cc(Nc2ncnc(N3CC4(CCCCC4)c4nc(C)ccc43)n2)c(OC)cc1N(C)CCN(C)C [Example 31, N-(2-((2-(dimethylamino)ethyl) (methyl)amino)-4-methoxy-5-((4-(5′-methylspiro[cyclohexane-1,3′-pyrrolo[3,2-b]pyridin]-1′(2′H)-yl)-1,3,5-triazin-2-yl)amino)phenyl)acrylamide]
16 | 53.7 | 35.7 | 95.8 | C=CC(=O)Nc1cc(Nc2nccc(N3CC4(CCCCC4)c4nc(C)ccc43)n2)c(OC)cc1N(C)CCN(C)C [Example 32, N-(2-((2-(dimethylamino)ethyl) (methyl)amino)-4-methoxy-5-((4-(5′-methylspiro[cyclohexane-1,3′-pyrrolo[3,2-b]pyridin]-1′(2′H)-yl)pyrimidin-2-yl)amino)phenyl)acrylamide]
